Literature values, collected in US7429679B2, “Sulphonic acid salt of sibutramine” (CJ Corporation, priority 2005, dated 2008).

Tested on: mouse
Settings: intravenous; cited from earlier work

## O=S(=O)(O)CCS(=O)(=O)O [ethane disulfonic acid]
  LDL0: 68 mg/kg

## CCS(=O)(=O)O [ethanesulfonic acid]
  LDL0: 48 mg/kg
